In patent US10266548B2, “Substituted benzylindazoles for use as Bub1 kinase inhibitors in the treatment of hyperproliferative diseases” (Bayer Intellectual Property GmbH, priority 2011, dated 2019) one finds IC50 data, which are given here for 23 molecules.

For assay [1], the system named is HeLa cells. Briefly: Proliferation assay (HeLa cell line). It counts as cell-based. To be noted: read-out: Biological Assay 2: Proliferation assay (HeLa cell line) median IC50. As for the experimental part: Cultivated tumor cells (cells were ordered from ATCC, except HeLa-MaTu and HeLa-MaTu-ADR, which were ordered from EPO-GmbH, Berlin) were plated at a density of 1000 to 5000 cells/well, depending on the growth rate of the respective cell line, in a 96-well multititer plate in 200 μL of their respective growth medium supplemented 10% fetal calf serum. After 24 hours, the cells of one plate (zero-point plate) were stained with crystal violet (see below), while the medium of the other plates was replaced by fresh culture medium (200 μl), to which the test substances were added in various concentrations (0 μM, as well as in the range of 0.001-10 μM; the final concentration of the solvent dimethyl sulfoxide was 0.5%). The cells were incubated for 4 days in the presence of test substances. Cell proliferation was determined by staining the cells with crystal violet: the cells were fixed by adding 20 μl/measuring point of an 11% glutaric aldehyde solution for 15 minutes at room temperature. After three washing cycles of the fixed cells with water, the plates were dried at room temperature. The cells were stained by adding 100 μl/measuring point of a 0.1% crystal violet solution (pH 3.0). After three washing cycles of the stained cells with water, the plates were dried at room temperature. The dye was dissolved by adding 100 μl/measuring point of a 10% acetic acid solution. […] The change of cell number, in percent, was calculated by normalization of the measured values to the aborbtion values of the zero-point plate (=0%) and the absorbtion of the untreated (0 μm) cells (=100%). The IC50 values were determined by means of a 4 parameter fit using the company's own software.

Assay [2] concerns the target catalytic domain of human Bub1 (amino acids 704-1085) (Homo sapiens (Human), UniProt O43683). As to the kind of experiment: Bub1 kinase assay (TR-FRET). The format is biochemical. To be noted: 10 μM ATP, 1 μM peptide substrate; read-out: Biological Assay 1: Bub1 kinase assay median IC50. How it is done: To this end, 100-fold concentrated compound solutions (in DMSO) were previously prepared by serial dilution (1:3.4) of 2 mM stocks in a clear low volume 384-well source microtiter plate (Greiner Bio-One, Frickenhausen, Germany), from which 50 nl of compounds were transferred into a black low volume test microtiter plate from the same supplier. […] The resulting mixture (5 μl final volume) was incubated at 22° C. during 60 min., and the reaction was stopped by the addition of 5 μl of an aqueous EDTA-solution (50 mM EDTA, in 100 mM HEPES pH 7.5 and 0.2% (w/v) bovine serum albumin) which also contained the TR-FRET detection reagents (0.2 μM streptavidin-XL665 [Cisbio Bioassays, Codolet, France] and 1 nM anti-phosho-Serine antibody [Merck Millipore, cat. #35-001] and 0.4 nM LANCE EU-W1024 labeled anti-mouse IgG antibody [Perkin-Elmer, product no. AD0077, alternatively a Terbium-cryptate-labeled anti-mouse IgG antibody from Cisbio Bioassays can be used]). The stopped reaction mixture was further incubated 1 h at 22° C. in order to allow the formation of complexes between peptides and detection reagents. Subsequently, the amount of product was evaluated by measurement of the resonance energy transfer from the Eu-chelate-antlbody complex recognizing the Phosphoserlne residue to the streptavidin-XL665 bound to the biotin moiety of the peptide. […] IC50 values were calculated by fitting the normalized inhibition data to a 4-parameter logistic equation (Minimum, Maximum, IC50, Hill; Y=Max+(Min−Max)/(1+(X/IC50)Hill)) using a Bayer-proprietary analysis software.

The mark [3] stands for this setting: Homo sapiens, 96 h, 4 days, crystal violet.

Where “and” joins values, the source holds several entries; their conditions need not be identical. Equal values may be shown once. Where a name gives a salt, the structure may show the parent alone. Read-outs that look alike come from different tables or passages of the source.

catalytic domain of human Bub1 (amino acids 704-1085), sequence (O43683 704-1085): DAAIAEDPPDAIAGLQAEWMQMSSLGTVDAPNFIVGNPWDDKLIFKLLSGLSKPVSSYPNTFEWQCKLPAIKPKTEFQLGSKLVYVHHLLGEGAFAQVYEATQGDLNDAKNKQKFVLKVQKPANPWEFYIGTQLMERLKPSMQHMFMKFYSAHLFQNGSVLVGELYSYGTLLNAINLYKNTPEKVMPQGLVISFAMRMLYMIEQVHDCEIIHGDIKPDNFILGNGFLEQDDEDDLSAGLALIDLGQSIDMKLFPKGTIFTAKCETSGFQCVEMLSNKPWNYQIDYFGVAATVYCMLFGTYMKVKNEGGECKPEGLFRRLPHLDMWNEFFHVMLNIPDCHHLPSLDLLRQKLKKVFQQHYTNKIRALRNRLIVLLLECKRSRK

In the case of `OC[C@H](O)COc1cnc(-c2nn(Cc3ccccc3F)c3ccccc23)nc1Nc1ccncc1` [Example 15-2, (2S)-3-({2-[1-(2-fluorobenzyl)-1H-indazol-3-yl]-4-(pyridin-4-ylamino)pyrimidin-5-yl}oxy)propane-1,2-diol hydrochloride (1:1)], the IC50 is at least 10 µM in assay [1] (Homo sapiens, 96 h) and 0.0055 µM in assay [2].

Turning to `OCCOc1cnc(-c2nn(Cc3ccccc3F)c3ccccc23)nc1Nc1ccncc1` [Example 13-2, 2-({2-[1-(2-fluorobenzyl)-1H-indazol-3-yl]-4-(pyridin-4-ylamino)pyrimidin-5-yl}oxy)ethanol], the IC50 in assay [1] (Homo sapiens, 96 h) came to 9.6 µM; in assay [2] it was 0.0072 µM.

Consider `Oc1cnc(-c2nn(Cc3ccc(F)cc3)c3ccccc23)nc1Nc1ccncc1` [Example 3-4, 2-[1-(4-fluorobenzyl)-1H-indazol-3-yl]-4-(pyridin-4-ylamino) pyrimidin-5-ol], for which the IC50 in assay [1] (setting [3]) was at least 10 µM; in assay [2], 0.048 µM.

For the molecule `Fc1ccccc1Cn1nc(-c2nccc(Nc3ccncc3)n2)c2ccccc21` [Example 5-3, 2-[1-(2-fluorobenzyl)-1H-indazol-3-yl]-N-(pyridin-4-yl)pyrimidin-4-amine], the IC50 in assay [1] (Homo sapiens, 96 h) was found to be 7.4 µM; in assay [2], 0.028 µM.

On to `COc1cnc(-c2nn(Cc3ccc(C)c(F)c3F)c3ccccc23)nc1Nc1ccncc1` [Example 2-8-1, 2-[1-(2,3-difluoro-4-methylbenzyl)-1H-indazol-3-yl]-5-methoxy-N-(pyridin-4-yl)pyrimidin-4-amine], for which the IC50 in assay [1] (setting [3]) was at least 10 µM; in assay [2], 0.0067 µM.

As to `COc1cnc(-c2nn(Cc3cccc(CC(C)(C)O)c3)c3ccccc23)nc1Nc1ccncc1` [Example 9-2, 1-[3-({3-[5-methoxy-4-(pyridin-4-ylamino)pyrimidin-2-yl]-1H-indazol-1-yl}methyl)phenyl]-2-methylpropan-2-ol], the IC50 in assay [1] (setting [3]) was at least 10 µM; in assay [2], 0.021 µM.

For `COc1cnc(-c2nn(Cc3ccccc3F)c3ccccc23)nc1Nc1ccncc1C(N)=O` [Example 25-1, 4-({2-[1-(2-fluorobenzyl)-1H-indazol-3-yl]-5-methoxypyrimidin-4-yl}amino)pyridine-3-carboxamide], the figures for the IC50 in assay [1] (setting [3]) and in assay [2] were at least 10 µM and 0.013 µM, respectively.

Turning to `CCOC(=O)c1cnccc1Nc1nc(-c2nn(Cc3ccccc3F)c3ccccc23)ncc1O` [Example 30-3, ethyl 4-({2-[1-(2-fluorobenzyl)-1H-indazol-3-yl]-5-hydroxypyrimidin-4-yl}amino)pyridine-3-carboxylate], the figures for the IC50 in assay [1] (setting [3]) and in assay [2] were at least 10 µM and 0.0084 µM, respectively.

For the molecule `COc1ccc(Cn2nc(-c3ncc(O)c(Nc4ccncc4)n3)c3ccccc32)cc1` [Example 3-2, 2-[1-(4-methoxybenzyl)-1H-indazol-3-yl]-4-(pyridin-4-ylamino) pyrimidin-5-ol], the IC50 was at least 10 µM in assay [1] (Homo sapiens, 96 h) and 0.0098 µM in assay [2].

On to `NC(=O)c1cnc(-c2nn(Cc3ccccc3F)c3ccccc23)nc1Nc1ccncc1` [Example 32-1, 2-[1-(2-fluorobenzyl)-1H-indazol-3-yl]-4-(pyridin-4-ylamino)pyrimidine-5-carboxamide], for which the IC50 is at least 10 µM in assay [1] (Homo sapiens, 96 h) and 0.12 µM in assay [2].

Regarding `COc1cnc(-c2nn(Cc3c(Cl)ccc(C(C)(C)O)c3Cl)c3ccccc23)nc1Nc1ccncc1` [Example 9-3, 2-[2,4-dichloro-3-({3-[5-methoxy-4-(pyridin-4-ylamino)pyrimidin-2-yl]-1H-indazol-1-yl}methyl)phenyl] propan-2-ol], the IC50 came out at 7 µM in assay [1] (Homo sapiens, 96 h) and 0.023 µM in assay [2].

Regarding `COCc1noc(COc2cnc(-c3nn(Cc4ccccc4F)c4ccccc34)nc2Nc2ccncc2)n1` [Example 4-13, 2-[1-(2-fluorobenzyl)-1H-indazol-3-yl]-5-{[3-(methoxymethyl)-1,2,4-oxadiazol-5-yl]methoxy}-N-(pyridin-4-yl)pyrimidin-4-amine], the IC50 was 8 µM in assay [1] (Homo sapiens, 96 h); 0.076 µM and 0.0076 µM in assay [2].

Consider `OC[C@@H](O)COc1cnc(-c2nn(Cc3ccccc3F)c3ccccc23)nc1Nc1ccncc1` [Example 12-2, (2R)-3-({2-[1-(2-fluorobenzyl)-1H-indazol-3-yl]-4-(pyridin-4-ylamino)pyrimidin-5-yl}oxy)propane-1,2-diol], for which the IC50 was at least 10 µM in assay [1] (Homo sapiens, 96 h) and 0.0046 µM in assay [2].

On to `COc1cnc(-c2nn(Cc3c(Cl)ccc(C(=O)NCCO)c3Cl)c3ccccc23)nc1Nc1ccncc1` [Example 20-4, 2,4-dichloro-N-(2-hydroxyethyl)-3-({3-[5-methoxy-4-(pyridin-4-yla-mino)pyrimidin-2-yl]-1H-indazol-1-yl}methyl) benzamide], for which the IC50 is at least 10 µM in assay [1] (setting [3]) and 0.75 µM in assay [2].

`COc1ccc(Cn2nc(-c3ncc(OC)c(Nc4ccncc4)n3)c3ccccc32)c(Cl)c1` [Example 2-6-1, 2-[1-(2-chloro-4-methoxybenzyl)-1H-indazol-3-yl]-5-methoxy-N-(pyridin-4-yl)pyrimidin-4-amine]: the IC50 in assay [1] (setting [3]) was found to be 3.8 µM; in assay [2], 0.0047 µM.

`CCOc1cc(F)c(Cn2nc(-c3ncc(OC)c(Nc4ccncc4)n3)c3c(C)cccc32)c(F)c1` [Example 42-1, 2-[1-(4-ethoxy-2,6-difluorobenzyl)-4-methyl-1H-indazol-3-yl]-5-methoxy-N-(pyridin-4-yl)pyrimidin-4-amine]: the IC50 in assay [1] (setting [3]) is 3.6 µM; in assay [2], 0.0067 µM.

Consider `CNC(=O)c1ccc(Cn2nc(-c3ncc(OC)c(Nc4ccncc4)n3)c3ccccc32)c(Cl)c1` [Example 29-1, formic acid-3-chloro-4-({3-[5-methoxy-4-(pyridin-4-ylamino)pyrimidin-2-yl]-1H-indazol-1-yl}methyl)-N-methylbenzamide (1:1)], for which the IC50 in assay [1] (setting [3]) was at least 10 µM; in assay [2], 0.011 µM.

Consider `O=C(O)c1cnccc1Nc1nc(-c2nn(Cc3ccccc3F)c3ccccc23)ncc1OCCO` [Example 33-1, 4-({2-[1-(2-fluorobenzyl)-1H-indazol-3-yl]-5-(2-hydroxyethoxy)pyrimidin-4-yl}amino)pyridine-3-carboxylic acid hydrochloride (1:1)], for which the IC50 in assay [1] (Homo sapiens, 96 h) was at least 10 µM; in assay [2], 0.011 µM.

As to `CCOc1cc(F)c(Cn2nc(-c3ncc(OC)c(Nc4ccncc4CO)n3)c3ccccc32)c(F)c1` [Example 8-4, [4-({2-[1-(4-ethoxy-2,6-difluorobenzyl)-1H-indazol-3-yl]-5-methoxypyrimidin-4-yl}amino)pyrimidin-3-yl]methanol], the IC50 in assay [1] (4 days, crystal violet) came to 5 µM; in assay [2], 0.013 µM.

Turning to `COc1cnc(-c2nn(Cc3c(F)cc(F)cc3F)c3ccccc23)nc1Nc1ccncc1` [Example 2-17-1, 5-methoxy-N-(pyridin-4-yl)-2-[1-(2,4,6-trifluorobenzyl)-1H-indazol-3-yl]pyrimidin-4-amine], the IC50 in assay [1] (Homo sapiens, 96 h) is at least 10 µM; in assay [2] it was 0.0088 µM.

In the case of `COc1cnc(-c2nn(Cc3ccc(I)cc3Cl)c3ccccc23)nc1Nc1ccncc1` [Example 2-28-1, 2-[1-(2-chloro-4-iodobenzyl)-1H-indazol-3-yl]-5-methoxy-N-(pyridin-4-yl)pyrimidin-4-amine], the IC50 in assay [1] (Homo sapiens, 96 h) amounted to 8.1 µM; in assay [2], 0.022 µM.

Consider `COc1cnc(-c2nn(Cc3c(F)cc(C(N)=O)cc3F)c3ccccc23)nc1Nc1ccncc1` [Example 2-50-1, 3,5-difluoro-4-({3-[5-methoxy-4-(pyridin-4-ylamino)pyrimidin-2-yl]-1H-indazol-1-yl}methyl)benzamide], for which the IC50 was at least 10 µM in assay [1] (Homo sapiens, 96 h) and 0.011 µM in assay [2].

Regarding `COc1cnc(-c2nn(Cc3c(Cl)cccc3Cl)c3ccccc23)nc1Nc1ccncc1` [Example 15-4, 2-[1-(2,6-dichlorobenzyl)-1H-indazol-3-yl]-5-methoxy-N-(pyridin-4-yl)pyrimidin-4-amine hydrochloride (1:1)], the IC50 in assay [1] (Homo sapiens, 96 h) was at least 10 µM; in assay [2], 0.0073 µM.
